Experimental data published in US10344017B2, “Pyrrolcarboxamide derivatives for the inhibition of ERK5” (CANCER RESEARCH TECHNOLOGY LIMITED, priority 2014, dated 2019).

Biological target: T1, ERK5 (Homo sapiens, UniProt Q13164)
T1 construct: made in house
Assay: ERK5 IMAP assay (fluorescence polarisation)
Type: biochemical
Conditions: average (e.g. geometric mean) where more than one data point; read-out: ERK5 IC50
Procedure: The assay buffer was prepared using 0.01% Tween®-20 5× stock, supplied as part of IMAP™ FP Progressive Binding System Kit (Molecular Devices R7436) and diluted to 1× using miliQ H2O. 1 μL of a 1M DTT stock was added for every 1 mL of 1× assay buffer to give a final concentration of 1 mM DTT.
ERK5 was expressed and purified at CRT-DL by Leon Pang and Sue Young. Aliquots were stored at −80° C. The ERK5 working solution was used at a […] final dilution in assay buffer. […] For 1 plate, […] of ERK5 stock was added to 2262 μL of 1× assay buffer.
To prepare the IMAP™ binding solution for one plate 20.5 μL of IMAP™ binding reagent stock, 1476 μL of 1× binding buffer A (60%), and 984 μL of binding buffer B (40%) (IMAP™ FP Progressive screening express kit (Molecular Devices R8127) was added to 9819.5 μL of milliQ H2O.
1 μL of inhibitor (in 60:40 H2O/DMSO) or 60:40 H2O/DMSO (for controls and blanks) were dry-spotted into the relevant wells of a 384-well assay plate using the MATRIX PlateMate® Plus. 5 μL of ERK5 working solution was added to test and control wells, and 5 μL of 1× assay buffer added to blanks; 4 μL of ATP/substrate working solution was added to all wells using a Matrix multichannel pipette. The plate was sealed using DMSO resistant clear seal and incubated for 2 h at 37° C. 1 μL of the kinase reaction mixture from the first plate was dry spotted into a second 384-well assay plate using the MATRIX PlateMate® Plus. 9 μL of assay buffer was added, followed by 30 μL of IMAP™ binding solution using a multichannel pipette. The plate was incubated at RT in darkness for 2 h. The assay plate was then read on an Analyst HT plate reader (Molecular Devices) using the settings described below: […]

T1 sequence (Q13164 whole entry): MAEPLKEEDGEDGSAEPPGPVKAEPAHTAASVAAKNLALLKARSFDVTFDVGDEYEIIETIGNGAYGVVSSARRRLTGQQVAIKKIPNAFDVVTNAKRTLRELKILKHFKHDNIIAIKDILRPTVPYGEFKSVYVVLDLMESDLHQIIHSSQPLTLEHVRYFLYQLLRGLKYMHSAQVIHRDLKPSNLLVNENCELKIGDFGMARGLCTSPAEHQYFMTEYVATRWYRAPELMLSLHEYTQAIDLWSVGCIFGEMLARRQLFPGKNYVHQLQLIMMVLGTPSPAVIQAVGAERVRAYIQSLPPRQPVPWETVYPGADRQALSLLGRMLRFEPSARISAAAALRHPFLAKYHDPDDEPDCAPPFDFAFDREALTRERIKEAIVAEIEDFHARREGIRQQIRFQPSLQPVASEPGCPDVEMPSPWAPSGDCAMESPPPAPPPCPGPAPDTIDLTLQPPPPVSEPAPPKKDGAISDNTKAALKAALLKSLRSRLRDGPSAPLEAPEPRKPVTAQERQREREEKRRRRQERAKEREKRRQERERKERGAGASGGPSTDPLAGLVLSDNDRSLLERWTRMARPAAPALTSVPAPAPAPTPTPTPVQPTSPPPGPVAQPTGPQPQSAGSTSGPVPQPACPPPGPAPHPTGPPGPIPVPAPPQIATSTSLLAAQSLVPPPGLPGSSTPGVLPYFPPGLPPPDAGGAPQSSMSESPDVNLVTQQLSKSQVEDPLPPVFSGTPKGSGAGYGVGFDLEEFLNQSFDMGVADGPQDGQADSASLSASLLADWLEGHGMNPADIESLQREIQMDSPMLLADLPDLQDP

Compound | IC50
CCOc1ccc(Cl)c(C(=O)c2c[nH]c(C(=O)Nc3cnn(C)c3)c2)c1F [Example 257, 4-(6-Chloro-3-ethoxy-2-fluorobenzoyl)-N-(1-methyl-1H-pyrazol-yl)-1H-pyrrole-2-carboxamide] | 203 nM
Cc1ccc(Cl)c(C(=O)c2c[nH]c(C(=O)Nc3cncnc3)c2)c1F [Example 179, 4-(6-Chloro-2-fluoro-3-methylbenzoyl)-N-(pyrimidin-5-yl)-1H-pyrrole-2-carboxamide] | 263 nM
CCCc1ncccc1NC(=O)c1cc(C(=O)c2c(Cl)ccc(Cl)c2F)c[nH]1 [Example 83, 4-(3,6-Dichloro-2-fluorobenzoyl)-N-(2-propylpyridin-3-yl)-1H-pyrrole-2-carboxamide] | 3540 nM
Cc1ccc(F)c(C(=O)c2c[nH]c(C(=O)Nc3cccnc3)c2)c1 [Example 232, 4-(2-Fluoro-5-methylbenzoyl)-N-(pyridin-3-yl)-1H-pyrrole-2-carboxamide] | 4050 nM
O=C(Nc1cnn(Cc2ccncc2)c1)c1cc(C(=O)c2c(Cl)ccc(Cl)c2F)c[nH]1 [Example 50, 4-(3,6-Dichloro-2-fluorobenzoyl)-N-(1-(pyridin-4-ylmethyl)-1H-pyrazol-4-yl)-1H-pyrrole-2-carboxamide] | 21 nM
O=C(Nc1ccc(F)nc1)c1cc(C(=O)c2c(F)cccc2Br)c[nH]1 [Example 153, 4-(2-Bromo-6-fluorobenzoyl)-N-(6-fluoropyridin-3-yl)-1H-pyrrole-2-carboxamide] | 1700 nM
CCCc1ccncc1NC(=O)c1cc(C(=O)c2c(F)cccc2Cl)c[nH]1 [Example 89, 4-(2-Chloro-6-fluorobenzoyl)-N-(4-propylpyridin-3-yl)-1H-pyrrole-2-carboxamide] | 3340 nM
O=C(Nc1cccnc1)c1cc(C(=O)c2c(Cl)ccc(OC(CCl)CCl)c2F)c[nH]1 [Example 271, 4-(6-Chloro-3-((1,3-dichloropropan-2-yl)oxy)-2-fluorobenzoyl)-N-(pyridin-3-yl)-1H-pyrrole-2-carboxamide] | 1260 nM
O=C(Nc1cnn(Cc2ccccn2)c1)c1cc(C(=O)c2c(Cl)ccc(Cl)c2F)c[nH]1 [Example 48, 4-(3,6-Dichloro-2-fluorobenzoyl)-N-(1-(pyridin-2-ylmethyl)-1H-pyrazol-4-yl)-1H-pyrrole-2-carboxamide] | 80.7 nM
O=C(NC1CCN(C(=O)C(F)(F)F)CC1)c1cc(C(=O)c2c(Cl)ccc(Cl)c2F)c[nH]1 [Example 11, 4-(3,6-Dichloro-2-fluorobenzoyl)-N-(1-(2,2,2-trifluoroacetyl)piperidin-4-yl)-1H-pyrrole-2-carboxamide] | 521 nM
Cc1ncccc1NC(=O)c1cc(C(=O)c2c(Cl)ccc(Cl)c2F)c[nH]1 [Example 81, 4-(3,6-Dichloro-2-fluorobenzoyl)-N-(2-methylpyridin-3-yl)-1H-pyrrole-2-carboxamide] | 394 nM
Cc1cc(NC(=O)c2cc(C(=O)c3c(F)cccc3Cl)c[nH]2)cc(C)n1 [Example 134, 4-(2-Chloro-6-fluorobenzoyl)-N-(2,6-dimethylpyridin-4-yl)-1H-pyrrole-2-carboxamide] | 368 nM
O=C(Nc1ccc(F)nc1)c1cc(C(=O)c2c(F)cccc2Cl)c[nH]1 [Example 152, 4-(2-Chloro-6-fluorobenzoyl)-N-(6-fluoropyridin-3-yl)-1H-pyrrole-2-carboxamide] | 1490 nM
O=C(NC1CCNCC1)c1cc(C(=O)c2c(Cl)ccc(F)c2F)c[nH]1 [Example 224, 4-(6-Chloro-2,3-difluorobenzoyl)-N-(piperidin-4-yl)-1H-pyrrole-2-carboxamide] | 155 nM
Cc1ccc(Cl)c(C(=O)c2c[nH]c(C(=O)Nc3cccnc3)c2)c1F [Example 178, 4-(6-Chloro-2-fluoro-3-methylbenzoyl)-N-(pyridin-3-yl)-1H-pyrrole-2-carboxamide] | 515 nM
Cc1ccc(F)c(C(=O)c2c[nH]c(C(=O)Nc3cncnc3)c2)c1F [Example 218, 4-(2,6-Difluoro-3-methylbenzoyl)-N-(pyrimidin-5-yl)-1H-pyrrole-2-carboxamide] | 779 nM
CCn1cc(NC(=O)c2cc(C(=O)c3c(Cl)ccc(Cl)c3F)c[nH]2)cn1 [Example 46, 4-(3,6-Dichloro-2-fluorobenzoyl)-N-(1-ethyl-1H-pyrazol-4-yl)-1H-pyrrole-2-carboxamide] | 66.5 nM
O=C(NC1CCNCC1)c1cc(C(=O)c2c(F)ccc(Cl)c2F)c[nH]1 [Example 212, 4-(3-Chloro-2,6-difluorobenzoyl)-N-(piperidin-4-yl)-1H-pyrrole-2-carboxamide] | 292 nM

Compound | IC50
O=C(Nc1cnc(N2CCN(C3CC3)CC2)nc1)c1cc(C(=O)c2c(Cl)ccc(Cl)c2F)c[nH]1 [Example 17, N-(2-(4-cyclopropylpiperazin-1-yl)pyrimidin-5-yl)-4-(3,6-dichloro-2-fluorobenzoyl)-1H-pyrrole-2-carboxamide] | 1750 nM
COc1ccc(Cl)c(C(=O)c2c[nH]c(C(=O)Nc3cnn(Cc4ccccn4)c3)c2)c1F [Example 65] | 53.8 nM
O=C(NC1CCNCC1)c1cc(C(=O)c2c(F)ccc(F)c2F)c[nH]1 [Example 208, N-(Piperidin-4-yl)-4-(2,3,6-trifluorobenzoyl)-1H-pyrrole-2-carboxamide] | 611 nM
COc1ccc(Cl)c(C(=O)c2c[nH]c(C(=O)Nc3ccc(CN4CCNCC4)nc3)c2)c1F [Example 251, 4-(6-Chloro-2-fluoro-3-methoxybenzoyl)-N-(6-(piperazin-1-ylmethyl)pyridin-3-yl)-1H-pyrrole-2-carboxamtde] | 7.9 nM
Cc1ncc(NC(=O)c2cc(C(=O)c3c(F)cccc3Br)c[nH]2)cn1 [Example 155, 4-(2-Bromo-6-fluorobenzoyl)-N-(2-methylpyrimidin-5-yl)-1H-pyrrole-2-carboxamide] | 1190 nM
Cc1cc(NC(=O)c2cc(C(=O)c3c(F)cccc3Br)c[nH]2)nc(C)n1 [Example 143, 4-(2-Bromo-6-fluorobenzoyl)-N-(2,6-dimethylpyrimidin-4-yl)-1H-pyrrole-2-carboxamide] | 4950 nM
Cc1ccc(F)c(C(=O)c2c[nH]c(C(=O)NC3CCNCC3)c2)c1F [Example 219, 4-(2,6-Difluoro-3-methylbenzoyl)-N-(piperidin-4-yl)-1H-pyrrole-2-carboxamide] | 628 nM
CS(=O)(=O)CCNc1ccc(NC(=O)c2cc(C(=O)c3c(Cl)ccc(Cl)c3F)c[nH]2)cn1 [Example 263, 4-(3,6-Dichloro-2-fluorobenzoyl)-N-(6-((2-(methylsulfonyl)ethyl)amino)pyridin-3-yl)-1H-pyrrole-2-carboxamide] | 211 nM
O=C(Nc1cncnc1)c1cc(C(=O)c2c(F)ccc(Cl)c2F)c[nH]1 [Example 211, 4-(3-Chloro-2,6-difluorobenzoyl)-N-(pyrimidin-5-yl)-1H-pyrrole-2-carboxamide] | 226 nM
COc1ccc(Cl)c(C(=O)c2c[nH]c(C(=O)Nc3ccc(NC4CCN(C)CC4)nc3)c2)c1F [Example 61, 4-(6-Chloro-2-fluoro-3-methoxybenzoyl)-N-(6-((1-methylpiperidin-4-yl)amino)pyridin-3-yl)-1H-pyrrole-2-carboxamide] | 26.9 nM
O=C(Nc1ccncn1)c1cc(C(=O)c2c(F)cccc2Cl)c[nH]1 [Example 132, 4-(2-Chloro-6-fluorobenzoyl)-N-(pyrimidin-4-yl)-1H-pyrrole-2-carboxamide] | 1150 nM
O=C(Nc1ccnc(Cl)n1)c1cc(C(=O)c2c(F)cccc2Br)c[nH]1 [Example 141, 4-(2-Bromo-6-fluorobenzoyl)-N-(2-chloropyrimidin-4-yl)-1H-pyrrole-2-carboxamide] | 7760 nM
Cc1ncccc1NC(=O)c1cc(C(=O)c2c(F)cccc2Cl)c[nH]1 [Example 148, 4-(2-Chloro-6-fluorobenzoyl)-N-(2-methylpyridin-3-yl)-1H-pyrrole-2-carboxamide] | 960 nM
CC(C)(C)OC(=O)N1CCC(NC(=O)c2cc(C(=O)c3c(F)cccc3Br)c[nH]2)CC1 [Example 196, tert-Butyl 4-(4-(2-bromo-6-fluorobenzoyl)-1H-pyrrole-2-carboxamido)piperidine-1-carboxylate] | 2720 nM
COc1ccc(Cl)c(C(=O)c2c[nH]c(C(=O)Nc3ccc(CC4CCNCC4)nc3)c2)c1F [Example 117, 4-(6-Chloro-2-fluoro-3-methoxybenzoyl)-N-(6-(piperidin-4-ylmethyl)pyridin-3-yl)-1H-pyrrole-2-carboxamide] | 9.2 nM
CCc1ncccc1NC(=O)c1cc(C(=O)c2c(F)cccc2Cl)c[nH]1 [Example 76, 4-(2-Chloro-6-fluorobenzoyl)-N-(2-ethylpyridin-3-yl)-1H-pyrrole-2-carboxamide] | 1580 nM
O=C(Nc1cnn(C2COC2)c1)c1cc(C(=O)c2c(Cl)ccc(Cl)c2F)c[nH]1 [Example 239, 4-(3,6-Dichloro-2-fluorobenzoyl)-N-(1-(oxetan-3-yl)-1H-pyrazol-4-yl)-1H-pyrrole-2-carboxamide] | 86.6 nM
